Results reported in ChEMBL document CHEMBL1151214, “Pentacyclic triterpenoid esters from the fruits of Bruguiera cylindrica” (J Nat Prod, 2004).
Values after ≈ are worked out from the molar mass of the structure shown. Active and inactive are the calls of the source. The calls are words filed in the database; no cut-off is given here.

Experiments:
Assay type in all cases: functional, cell-based
BC = experiment: Cytotoxicity against human BC cells by colorimetric method
KB = experiment: Cytotoxicity against human KB cells by colorimetric method
NCI-H187 = experiment: Cytotoxicity against human NCI-H187 cells by colorimetric method

Row | Structure (SMILES) | Activity (BC) | Activity (KB) | Activity (NCI-H187) | IC50 (NCI-H187)
1 | CC1(C)CC[C@]2(C)CC=C3[C@]4(C)CC[C@H]5C(C)(C)[C@H](OC(=O)/C=C/c6ccc(O)cc6)CC[C@]5(C)[C@H]4CC[C@@]3(C)[C@@H]2C1 | inactive | inactive | inactive | 
2 | COc1cc(/C=C/C(=O)O[C@H]2CC[C@]3(C)[C@H]4CC[C@]5(C)C(=CC[C@@]6(C)CCC(C)(C)C[C@H]65)[C@]4(C)CC[C@H]3C2(C)C)ccc1O | inactive | inactive | inactive | 
3 | COc1cc(/C=C/C(=O)O[C@@H]2CC[C@]3(C)[C@H]4CC[C@]5(C)C(=CC[C@@]6(C)CCC(C)(C)C[C@H]65)[C@]4(C)CC[C@H]3C2(C)C)ccc1O | inactive | inactive | inactive | 
4 | CC1(C)CC[C@]2(C)CC=C3[C@]4(C)CC[C@H]5C(C)(C)[C@H](OC(=O)/C=C\c6ccc(O)cc6)CC[C@]5(C)[C@H]4CC[C@@]3(C)[C@@H]2C1 | inactive | inactive |  | 20 µg/mL (≈ 34.9 µM)
5 | COc1cc(/C=C\C(=O)O[C@@H]2CC[C@]3(C)[C@H]4CC[C@]5(C)C(=CC[C@@]6(C)CCC(C)(C)C[C@H]65)[C@]4(C)CC[C@H]3C2(C)C)ccc1O | inactive | inactive |  | 12.2 µg/mL (≈ 20.2 µM)
